In a melting point compilation (Tetko et al.; mined from patent text by program, amines drawn as free bases though some values may be those of a salt):

First: CC(C)CC[C@H](O)[C@H](CC1CCCCC1)NC(=O)[C@@H](N)Cc1c[nH]cn1
Second: Cc1cccc2c1N(C)C(=O)C(NC(=O)Nc1cccc(-c3nnn[nH]3)c1)N=C2C1CCCCC1 (centres undefined)
The melting point of the first is lower: 126 to 130 °C for the first, 199 to 201 °C for the second.

First: O=C(Nc1cccc(Cl)c1)NC1CC(C2CCCCC2)c2ccccc2NC1=O (centres undefined)
Second: O=C(Cc1cccnc1)[N+]1([O-])CCC(C2c3ccc(Cl)cc3CCc3cccnc32)CC1 (centres undefined)
The melting point of the first is higher: 222 to 225 °C for the first, 117 to 118 °C for the second.

Compared with O=C(O)c1cccc(-c2cnn3c(O)ncnc23)c1, O=[N+]([O-])c1cnn2c(-c3ccco3)ccnc12 is lower in melting point: over 300 °C for the first, 235 to 237 °C for the second.

First: O=C(O)Cc1cc(=O)n(Cc2ccc(Cl)cc2)c2ccc([N+](=O)[O-])cc12
Second: O=[N+]([O-])c1ccc(Sc2ccccc2)c(CO)c1
The melting point of the first is higher: 217 to 219 °C for the first, 104 to 107 °C for the second.

First: C=CC1CCC2C3CCC4=CC(=O)CCC4(C)C3CCC12C (centres undefined)
Second: COc1cc2c(cc1C)CCN(C)C2C1(C2C=CCCC2)CCC1 (centres undefined)
The melting point of the first is lower: 122 to 124 °C for the first, 124 to 125 °C for the second.

Compared with O=C1c2ccc(Cl)cc2-n2c1nc1ccccc1c2=O, CN1CCC(=C2c3ccccc3COc3cc(Cl)ccc32)CC1 is lower in melting point: 301 to 303 °C for the first, 113 to 116 °C for the second.

Compared with CCCCC(O)c1c(C(C)C)nc(C(C)C)c(CO)c1-c1ccc(F)cc1 (centres undefined), CC(C)c1nn(-c2ncccn2)c(-c2ccc(F)cc2)c1Br is lower in melting point: 166 to 168 °C for the first, 130 to 133 °C for the second.

Compared with COc1ccc(CC(=O)O)c(C(=O)O)c1, N#Cc1ccc(C=CC(=O)c2ccc(O)c(CC(=O)O)c2)cc1 is higher in melting point: 175 to 177 °C for the first, 249 °C for the second.

First: O=C(O)CC1=C(n2nc(-c3c(-c4ccccc4)nn4ccccc34)ccc2=O)CCCCC1
Second: Cn1cc(-c2c(-c3ccccc3)nn3ccncc23)ccc1=O
The melting point of the first is higher: 171 to 172 °C for the first, 168 to 169 °C for the second.

First: Cc1ccc(-c2nc(Cl)cc(N3CCN(CCO)CC3)n2)cc1
Second: CC(=O)N1CCN(c2cncc(Cl)n2)CC1
The melting point of the first is lower: 104 °C for the first, 106 to 108 °C for the second.

First: COc1ccnc(C(=O)N[C@H]2COC(=O)[C@H](Cc3ccccc3)[C@@H](OC(=O)C(C)C)[C@H](C)OC2=O)c1OCc1ccccc1
Second: CCOC(=O)c1cn(Cc2ccccc2)nc1OCc1ccc(OCc2nc(-c3ccccc3)oc2C)cc1
The melting point of the first is higher: 169 to 170 °C for the first, 99 to 100 °C for the second.

Compared with N=C(CC=O)c1ccccc1, OCc1cccc2cc(-c3ccccc3)sc12 is higher in melting point: 80 to 82 °C for the first, 125 to 126 °C for the second.

Compared with COc1cccc(CNC(=O)c2ccc(COC3CCCCO3)cc2)c1 (centres undefined), CC(C)(C)OC(=O)NCc1ccccc1-c1ccc(CO)cc1 is higher in melting point: 66 to 68.5 °C for the first, 89 to 93 °C for the second.

First: COc1ccc(NC(=O)N2CCCC2=O)cc1
Second: COC(C)COC(=O)Nc1ccc(C2=NNC(=O)CC2C)cc1 (centres undefined)
The melting point of the first is lower: 113 to 114 °C for the first, 173 to 175 °C for the second.

First: CC(NS(=O)(=O)c1cc(C(=O)Cl)ccc1Cl)c1ccccc1 (centres undefined)
Second: O=C(NNS(=O)(=O)c1ccccc1)c1cc2ccccc2o1
The melting point of the first is lower: 112 °C for the first, 164 to 167 °C for the second.

First: COc1ccc(N2CC(CSCCCSc3ccnc(CNc4nc(C)nc(C)c4Cl)c3C)OC2=O)cc1 (centres undefined)
Second: COC(=O)c1cnc(OCc2ccccn2)nc1NCc1ccc(OC)c(Cl)c1
The melting point of the first is higher: 161 to 164 °C for the first, 135 to 136 °C for the second.

Compared with CN(C(=O)CN(C(=O)CNC(=O)Nc1cccc(CCO)c1)c1ccccc1)c1ccccc1, CCCN(Cc1ccc(-c2ccccc2C(=N)NO)cc1)c1nc2ccccc2cc1C(=O)OCC is lower in melting point: 152 °C for the first, 61 to 67 °C for the second.

Compared with CCOC(=O)C(=O)Nc1cccc(NC(=O)C(=O)OCC)c1Cl, CCOC(=O)C1=C(C)NC(=S)N(C(=O)OCC)C1c1ccccc1[N+](=O)[O-] (centres undefined) is lower in melting point: 162 °C for the first, 130 to 132 °C for the second.

First: O=C(c1ccco1)N1Cc2c(-c3noc(C4CC4)n3)ncn2-c2ccccc21
Second: CC(C)(C)c1ccccc1N1CCN(C(=O)c2ccccn2)CC1
The melting point of the first is higher: 190 to 191 °C for the first, 140 to 145 °C for the second.

First: CC1(C)CCCC(=Cc2ccc(Cl)cc2)C1=O
Second: COc1ccc(NC(=O)[C@H]2[C@H](c3ccccc3)C23CCCC3)c(OC)n1 (relative stereo)
The melting point of the first is lower: 92 °C for the first, 131 to 133 °C for the second.

First: Cc1cc(C)c(S(=O)(=O)n2c(CCC(=O)O)cc3cc(Cl)ccc32)c(C)c1
Second: Cc1cc(-c2cc(C(F)F)nn2-c2ccc(S(C)(=O)=O)c(F)c2)ccc1-c1cscn1
The melting point of the first is higher: 132 to 134 °C for the first, 123 °C for the second.

First: CCCCOc1c(CN2C(=O)c3ccccc3C2=O)n(CC(C)(C)C)c(=O)c2cc(F)ccc12
Second: Cc1cc(C)cc(C(=O)c2c(-c3ccc(OCCN(C)C)cc3)oc3ccccc23)c1
The melting point of the first is higher: 155 to 156 °C for the first, 132 to 135 °C for the second.

First: O=C1c2ccccc2C(OCC2CO2)N1c1ccccc1 (centres undefined)
Second: O=CCCOC(c1ccccc1)(c1ccccc1)c1ccccc1
The melting point of the first is lower: 76 °C for the first, 97 to 98 °C for the second.

Compared with CCOC(=O)c1sc(N2CCNC2=O)nc1C(F)(F)F, CCOC(=O)c1c(C(F)(F)F)nc(C(F)F)c(C(=O)O)c1N is lower in melting point: 185 to 187 °C for the first, 142 to 151 °C for the second.

First: CC(C)OC(=O)c1ccc2c(c1)ncn2-c1cccc(-c2cccnc2Cl)c1
Second: Cc1nccn1-c1nc(Cl)c(-c2ccccc2)c2ccccc12
The melting point of the first is lower: 147 to 150 °C for the first, 167 to 168 °C for the second.

Compared with COC(=O)ON1C(=O)c2ccccc2C1=O, CC(=O)NC(C(=O)c1ccccc1N)[N+](=O)[O-] (centres undefined) is higher in melting point: 129 to 135 °C for the first, 178 to 179 °C for the second.

Compared with CCOc1nc2cc(Cl)c(Cl)cc2nc1N, COC(=O)c1nc(-c2cc(N(C)C)c(Cl)cc2F)cc(N)c1Cl is lower in melting point: 191 to 193 °C for the first, 113 to 115 °C for the second.

Compared with CC(C)C(NC(=O)CN1C=Cc2c([nH]c3c(C(=O)O)cccc23)C1)C(=O)C(F)(F)F (centres undefined), Cc1cc(C2=NOC(c3cc(Cl)cc(Cl)c3)(C(F)(F)F)C2)ccc1C(=O)NC(N)=O (centres undefined) is lower in melting point: 260 to 262 °C for the first, 201 to 205 °C for the second.

First: CCOCC(O)(COCC)C(Cc1ccc2ccccc2c1)[N+](=O)[O-] (centres undefined)
Second: CCC(CC)N(O)C(=O)Nc1ccc(Cc2ccccc2)cc1
The melting point of the first is lower: 87 °C for the first, 132 to 134 °C for the second.

First: Oc1ccc(P(c2ccc(O)cc2)c2ccc(O)cc2)cc1
Second: CCOC(=O)c1ccc(-c2ccc(-c3ccccc3O)c(-c3ccc4c(c3)C(C)(C)CCC4(C)C)c2)cc1
The melting point of the first is lower: 128 to 133 °C for the first, 161 to 163 °C for the second.

Compared with CC1=NNC(=O)N(N)C1, CC1=CSC(C)C(=O)N1 (centres undefined) is lower in melting point: 117 to 119 °C for the first, 78 to 80 °C for the second.

First: Cc1nn(C)c2c1N=C(C(C)C)N1CC(C)N=C21 (centres undefined)
Second: CCCCC(OC)c1nc2c(N)nc3ccccc3c2n1CC(C)C (centres undefined)
The melting point of the first is lower: 96 to 97 °C for the first, 125 to 128 °C for the second.

Compared with N#Cc1c(N2CCN(C(=O)c3cccs3)CC2)c2sccc2n(Cc2cccc(F)c2)c1=O, O=C(c1ccncc1)c1cc(-c2ccc(Cl)cc2)c(N2CCOCC2)s1 is lower in melting point: 271 °C for the first, 117 °C for the second.

First: CCCCCCCCCCCCCCCc1cc2c(C(=O)O)cccc2[nH]1
Second: CCCc1c(OCCCCCOc2cc(OCCCC(=O)O)ccc2CCC(=O)O)ccc2c1OCCC2=O
The melting point of the first is lower: 114 to 117 °C for the first, 163 to 164 °C for the second.

First: COc1ccc(C2=C(c3ccc(S(C)(=O)=O)cc3)CCC2)cc1Cl
Second: COc1cc(-n2nc(C(F)(F)F)cc2-c2ccc(-c3ccco3)cc2)ccc1S(C)(=O)=O
The melting point of the first is lower: 118 to 120 °C for the first, 139 °C for the second.

First: CC[C@H](COC)n1cc(Cl)nc(N2CCc3cc(OC)cc(C#N)c32)c1=O
Second: COCCOc1cc2c(Nc3cc(OC)c(Cl)cc3Cl)c(C#N)cnc2cc1F
The melting point of the first is lower: 141 to 142 °C for the first, 170 to 172 °C for the second.

First: O=C1c2c(O)ccc(O)c2C(=O)c2c(NCCN3CCC(O)C3)ccc(NCCN3CCC(O)C3)c21 (centres undefined)
Second: Cn1cc(C(=O)CCN2CCCCC2)cc1C(=O)c1cccc2ccccc12
The melting point of the first is higher: 197 to 199 °C for the first, 141 to 143 °C for the second.

First: OCc1c[nH]c(=S)n1[C@H]1CCc2c(F)cc(F)cc2C1
Second: OCc1ccc2c(c1)COC2c1ccc(F)cc1 (centres undefined)
The melting point of the first is higher: 206 to 207 °C for the first, 101 to 104 °C for the second.

Compared with CS(=O)(=O)c1ccc(-c2cc(C(F)(F)F)nn2-c2ccc(F)cc2)cc1F, CCC(CC)(CC(=O)Nc1cccc(OCc2ccc3ccc(Cl)cc3n2)c1)C(=O)O is lower in melting point: 228 to 229 °C for the first, 87.5 to 88.5 °C for the second.

CCCCc1ccc(Nc2cc(C)nc3ccc(OC)cc23)cc1 and COc1ccc(CS(=O)(=O)c2ccc(S(N)(=O)=O)s2)cc1 cannot be ordered by melting point: 200 to 201 °C for the first, 198 to 203 °C for the second.

First: CCOC(=O)C(NC(C)=O)(C(=O)OCC)[C@@H]1CC(=O)C[C@H]1NC(=O)OC(C)(C)C (relative stereo)
Second: COc1ccc(-c2cccc(OC3SCC(OC(C)=O)C(OC(C)=O)C3OC(C)=O)c2)cn1 (centres undefined)
The melting point of the first is higher: 135 to 136 °C for the first, 132 °C for the second.

Compared with COc1ccc(C(=O)c2c(N)sc3c2CCN(Cc2ccccc2)C3)cc1OC, Cc1ccc(C=CC(=O)C(CCC(=O)O)(Cc2ccccc2Cl)c2ccccc2)cc1 (centres undefined) is lower in melting point: 149 to 150 °C for the first, 120 to 147 °C for the second.

Compared with CC(C)(C)c1ccc(-c2nc(NC(=O)c3cccnc3)sc2-c2ccncc2)cc1, CCC1OC(=O)Nc2ccc(-c3cccc(Cl)c3)cc21 (centres undefined) is lower in melting point: 326 to 328 °C for the first, 146 to 148 °C for the second.

Compared with CC(=O)NNC(=O)c1cc2cccc(NS(=O)(=O)c3cccs3)c2[nH]1, O=C(c1ccc(Cl)c([N+](=O)[O-])c1)c1nccs1 is lower in melting point: 254 to 256 °C for the first, 118 to 119 °C for the second.

Compared with C#Cc1ccc(C23OCC(C4CCCCC4)(CO2)CO3)cc1, N#Cc1ccc2[nH]cc([C@H]3CC[C@@H](N4CC(Oc5cccc(F)c5)C4)CC3)c2c1 is lower in melting point: 190 to 192 °C for the first, 187 to 190 °C for the second.

First: N[C@@H](CO)[C@@H](O)[C@H](O)[C@H](O)CO
Second: Cc1nc2c(cc1NC(=N)N=C=O)CCCCC2CO[N+](=O)[O-] (centres undefined)
The melting point of the first is higher: 129 to 130 °C for the first, 120 to 121 °C for the second.

Compared with NC(=O)c1nc(-c2c(Cl)cc(C(F)(F)F)cc2Cl)[nH]c1C(N)=O, N#CC1=C(Nc2cc(C(F)(F)F)ccc2N)CSC1 is lower in melting point: 306 to 308 °C for the first, 189 °C for the second.

First: CCCc1cc2c(cc1O)C(C)(C)CCC2(C)C
Second: CCCCCS(=O)(=O)NC(=O)/C=C/c1ccc(OCCOC)cc1Oc1ncc(Br)cc1C
The melting point of the first is lower: 96 to 97 °C for the first, 160 °C for the second.

Compared with CCOC(=O)C1=CC2(CCC1S(=O)(=O)Nc1ccc(F)cc1Cl)S(=O)(=O)CCS2(=O)=O (centres undefined), O=C(O)c1cc(Br)cc2c1NCCS2 is higher in melting point: 88 to 90 °C for the first, 205 to 206 °C for the second.

For Cc1nc[nH]c1CSCCNC(=N)NCCSCc1nccs1, the melting point was 149 to 151 °C.
